Where two headings read alike, the source gives them in different places.
Key:
[1] = target: human recombinant 5-HT2C receptor (Homo sapiens (Human), UniProt P28335); assay: 5-HT2C receptor binding inhibition test ([3H]-Mesulergine); settings: Jump-In HEK cell membrane, 37° C. 2 hours
Experimental: Test Example 2: 5-HT2C Receptor Binding Inhibition Test
(§1) (Each Experimental Condition)
Cell membrane: 0.5 μg of Jump-In HEK cell membrane (expressing human recombinant 5-HT2C receptor) per well
(§2) Assay buffer: Tris-HCl 50 mmol/L (pH 7.4) containing NaCl 120 mmol/L, MgCl2·6H2O 1 mmol/L, KCl 5 mmol/L, 0.1% BSA and CaCl2 2 mmol/L
Radioactive ligand: [^3H]-Mesulergine with a final concentration of around Kd value calculated by the following method
Non-specific ligand: Serotonin HCl with a final concentration of […]
(§3) The Kd value is calculated when the lot of cell membrane is changed. In advance, 0.5 μL of a 1 mmol/L compound for non-specific binding calculation dissolved in DMSO or DMSO is dispensed into a microplate, and the cell membrane is diluted with an Assay buffer. The radioactive ligand solution is serially diluted and the count is confirmed with a liquid scintillator. Assay buffer containing diluted cell membrane is dispensed into a microplate at 50 μL/well. Then, the radioactive ligand solution is dispensed into a microplate at 50 μL/well, and the plate is sealed. It is allowed to stand at 37° C. for 2 hours. During this period, 50 mmol/L Tris-HCl (pH 7.4) is dispensed into a GF/B UniFilter plate at 50 μL/well and allowed to stand at 4° C. for 1 hour or longer. After that, filtration is performed with Cell harvester (PerkinElmer). The radioactive ligand solution is dispensed into an empty well of the GF/B UniFilter plate at 10 μL/well. After the GF/B UniFilter plate is dried at room temperature, MicroScinti 20 is dispensed into the GF/B UniFilter plate at 50 μL/well to seal the plate. The GF/B UniFilter plate is allowed to stand overnight at room temperature. The radioactivity of [^3H]-Mesulergine bound to the 5-HT2C receptor is measured using Microbeta2 (PerkinElmer) at a measurement time of 1 min/well. The Saturation curve is drawn from the measured value, and the Kd value is calculated from the slope of the Scatchard Plot.
(§4) (Binding Test of the Compound According to the Present Invention)
In advance, 0.5 μL of the compound solution dissolved in DMSO is dispensed into a microplate, and the cell membrane and the hot ligand are diluted with Assay buffer, respectively. Then, the Assay buffer containing the diluted cell membrane is dispensed into a microplate at 50 μL/well. Then, the radioactive ligand solution is dispensed into a microplate at 50 μL/well, and the plate is sealed. Then, it is allowed to stand at 37° C. for 2 hours. During this period, 50 mmol/L Tris-HCl (pH 7.4) is dispensed into a GF/B UniFilter plate at 50 μL/well and allowed to stand at 4° C. for 1 hour or longer. After that, filtration is performed with Cell harvester (PerkinElmer). After the GF/B UniFilter plate is dried at room temperature, MicroScinti 20 is dispensed into the GF/B UniFilter plate at 50 μL/well, and the plate is sealed. The GF/B UniFilter plate is allowed to stand overnight at room temperature. The radioactivity of [^3H]-Mesulergine bound to the 5-HT2C receptor is measured using Microbeta2 (PerkinElmer) at a measurement time of 1 min/well. The non-specific binding is calculated from the radioactivity of […] in the presence of 500 μmol/L Serotonin HCl which is the unlabeled ligand, and the total binding is calculated from the radioactivity of [^3H]-Mesulergine in the absence of the compound according to the present invention (Vehicle). Finally, the Ki value is calculated from the dose-response curve.
(§5) (The binding activity of the compound according to the present invention is calculated from the following binding inhibition rate (%).)
(§6) [formula] • a; mean cpm of non-specific binding • b; average cpm of total binding • c; cpm in the presence of the test compound

[2] = target: human recombinant 5-HT2A receptor (Homo sapiens (Human), UniProt P28223); assay: 5-HT2A receptor binding inhibition test ([3H]-Ketanserin); settings: Jump-In HEK cell membrane, 25° C. 1.5 hours
Chain of human recombinant 5-HT2A receptor (P28223 whole entry): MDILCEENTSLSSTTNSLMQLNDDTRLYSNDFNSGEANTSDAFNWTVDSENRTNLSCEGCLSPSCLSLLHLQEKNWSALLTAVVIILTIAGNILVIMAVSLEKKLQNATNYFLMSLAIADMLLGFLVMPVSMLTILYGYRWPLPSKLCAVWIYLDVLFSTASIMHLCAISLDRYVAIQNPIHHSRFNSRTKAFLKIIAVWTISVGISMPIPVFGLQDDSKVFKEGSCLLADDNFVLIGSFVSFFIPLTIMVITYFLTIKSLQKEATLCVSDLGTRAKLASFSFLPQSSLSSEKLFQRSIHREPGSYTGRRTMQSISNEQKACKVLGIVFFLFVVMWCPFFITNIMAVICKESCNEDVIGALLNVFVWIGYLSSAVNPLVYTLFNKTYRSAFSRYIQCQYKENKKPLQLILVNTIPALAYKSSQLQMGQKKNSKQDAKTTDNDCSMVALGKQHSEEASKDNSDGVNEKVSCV
Experimental: Test Example 1: 5-HT2A Receptor Binding Inhibition Test
as §1
Cell membrane: 15 μg of Jump-In HEK cell membrane (expressing human recombinant 5-HT2A receptor) per well
as §2
Radioactive ligand: [^3H]-Ketanserin with a final concentration of around Kd value calculated by the following method
Non-specific ligand: Serotonin HCl with a final concentration of 500 μmol/L
as §3, with “at room temperature (25° C.)” for “at 37° C.”, “for 1.5” for “for 2”, “of [^3H]-Ketanserin” for “of [^3H]-Mesulergine”, “the 5-HT2A” for “the 5-HT2C”
as §4
In advance, 0.5 μL of the compound solution dissolved in DMSO is dispensed into a microplate, and the cell membrane and the hot ligand are diluted with Assay buffer, respectively. Then, the Assay buffer containing the diluted cell membrane is dispensed into a microplate at 50 μL/well. Then, the radioactive ligand solution is dispensed into a microplate at 50 μL/well, and the plate is sealed. Then, it is allowed to stand at room temperature (25° C.) for 1.5 hours. During this period, 50 mmol/L Tris-HCl (pH 7.4) is dispensed into a GF/B UniFilter plate at 50 μL/well and allowed to stand at 4° C. for 1 hour or longer. After that, filtration is performed with Cell harvester (PerkinElmer). After the GF/B UniFilter plate is dried at room temperature, MicroScinti 20 is dispensed into the GF/B UniFilter plate at 50 μL/well to seal the plate. The GF/B UniFilter plate is allowed to stand overnight at room temperature. The radioactivity of [^3H]-Ketanserin bound to the 5-HT2A receptor is measured using Microbeta2 (PerkinElmer) at a measurement time of 1 min/well. The non-specific binding is calculated from the radioactivity of [^3H]-Ketanserin in the presence of 500 μmol/L Serotonin HCl which is the unlabeled ligand, and the total binding is calculated from the radioactivity of [^3H]-Ketanserin in the absence of the compound according to the present invention (Vehicle). Finally, the Ki value is calculated from the dose-response curve.
as §5, §6

[3] = read-out: human serotonin 5-HT2C receptor binding activity Ki
[4] = read-out: human serotonin 5-HT2A receptor binding activity Ki

Chain of human recombinant 5-HT2C receptor (P28335 33-458): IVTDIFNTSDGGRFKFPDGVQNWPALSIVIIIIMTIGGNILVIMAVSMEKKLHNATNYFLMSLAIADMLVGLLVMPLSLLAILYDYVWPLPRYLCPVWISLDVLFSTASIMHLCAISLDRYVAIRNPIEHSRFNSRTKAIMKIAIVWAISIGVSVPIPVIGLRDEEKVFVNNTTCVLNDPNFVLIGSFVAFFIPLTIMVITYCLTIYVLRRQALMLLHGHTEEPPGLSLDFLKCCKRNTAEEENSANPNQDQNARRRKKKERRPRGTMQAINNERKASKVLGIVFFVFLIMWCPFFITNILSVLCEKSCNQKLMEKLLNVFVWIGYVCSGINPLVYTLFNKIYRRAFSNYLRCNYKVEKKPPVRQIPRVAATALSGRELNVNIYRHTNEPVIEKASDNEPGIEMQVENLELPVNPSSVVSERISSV

SMILES	Ki ([1]; read-out: h-5-HT2C Ki) [nM]	Ki ([2]; read-out: h-5-HT2A Ki) [nM]	Ki [1, 3] [nM]	Ki [2, 4] [nM]
CN1CCC2(CC1)NC(N(Cc1ccc(OCC(F)(F)C(F)F)cc1)Cc1ccn(C)n1)=NO2 [Compound I-010]	< 10	< 10	–	–
Cc1nc(CN(Cc2ccc(OCC(C)C)cc2)C2=NOC3(CCN(C)CC3)N2)co1 [Compound I-011]	–	–	0.585	1.22
CC(C)COc1ccc(CN(Cc2ccccn2)C2=NOC3(CCN(C)CC3)N2)cc1 [Compound I-012]	10 to 100	< 10	–	–
Cc1cccc(CN(Cc2ccc(OCC(C)C)cc2)C2=NOC3(CCN(C)CC3)N2)n1 [Compound I-013]	10 to 100	10 to 100	–	–
CCCOc1ccc(CN(Cc2ccn(C)n2)C2=NOC3(CCN(C)CC3)N2)cc1 [Compound I-014]	10 to 100	< 10	–	–
CC(C)COc1ccc(CN(Cc2ccn(C(F)F)n2)C2=NOC3(CCN(C)CC3)N2)cc1 [Compound I-015]	10 to 100	< 10	–	–
Cc1ccc(CN(Cc2ccc(OCC(C)C)cc2)C2=NOC3(CCN(C)CC3)N2)nc1 [Compound I-016]	< 10	< 10	–	–
Cc1nc(CN(Cc2ccc(OCC(C)C)cc2)C2=NOC3(CCN(C)CC3)N2)cs1 [Compound I-017]	< 10	< 10	–	–
Cc1nc(CN(Cc2ccc(OCC(C)C)cc2)C2=NOC3(CCN(C)CC3)N2)no1 [Compound I-018]	< 10	10 to 100	–	–
CC(C)COc1ccc(CN(Cc2cn(C)cn2)C2=NOC3(CCN(C)CC3)N2)cc1 [Compound I-019]	100 to 500	< 10	–	–
CC(C)COc1ccc(CN(Cc2ccc(F)cc2)C2=NC3(CCN(C)CC3)CO2)cc1 [Compound I-020]	100 to 500	10 to 100	–	–
CC(C)COc1ccc(CN(Cc2ccc(F)cc2)C2=NC(=O)C3(CCN(C)CC3)N2)cc1 [Compound I-021]	10 to 100	< 10	–	–
CC(C)COc1ccc(CN(Cc2ccc(F)cc2)C2=NC(=O)C3(CCNCC3)N2)cc1 [Compound I-022]	< 10	< 10	–	–
CC(C)CNc1ccc(CN(Cc2ccn(C)n2)C2=NOC3(CCN(C)CC3)N2)cc1 [Compound I-023]	10 to 100	10 to 100	–	–
CCCOc1ccc(CC2=NOC3(CCN(C)CC3)N2Cc2ccc(F)cn2)cc1 [Compound I-024]	10 to 100	< 10	–	–
CCCOc1ccc(CC2=NOC3(CCN(C)CC3)N2Cc2ccn(C)n2)cc1 [Compound I-025]	10 to 100	10 to 100	–	–
CCCOc1ccc(CC2=NOC3(CCN(C)CC34CC4)N2Cc2ccc(F)cn2)cc1 (centres unmarked) [Compound I-026]	< 10	< 10	–	–

SMILES	Ki ([1]; read-out: h-5-HT2C Ki) [nM]	Ki ([2]; read-out: h-5-HT2A Ki) [nM]	Ki [1, 3] [nM]	Ki [2, 4] [nM]
CCCOc1ccc(CC2=NOC3(CCN(C)CC34CC4)N2Cc2ccn(C)n2)cc1 (centres unmarked) [Compound I-027]	–	–	2.21	1.89
CCCOc1ccc(CN(Cc2coc(C)n2)C2=NOC3(CCN(C)CC3)N2)cc1 [Compound I-028]	< 10	< 10	–	–
CC(C)COc1ccc(CN(Cc2ccc(F)cn2)C2=NC(=O)C3(CCN(C)CC3)N2)cc1 [Compound I-030]	10 to 100	< 10	–	–
CC(C)COc1ccc(CN(Cc2cocn2)C2=NOC3(CCN(C)CC3)N2)cc1 [Compound I-031]	10 to 100	10 to 100	–	–
Cc1cnc(CN(Cc2ccc(OCC(C)C)cc2)C2=NOC3(CCN(C)CC3)N2)o1 [Compound I-032]	10 to 100	10 to 100	–	–
CC(C)COc1ccc(CN(Cc2ccn(C)n2)C2=NC(=O)C3(CCN(C)CC3)N2)cc1 [Compound I-033]	–	–	19	10.1
CC(C)COc1ccc(CN(Cc2ccn(C)n2)C2=NOC3(CCNCC3)N2)cc1 [Compound I-036]	< 10	< 10	–	–
Cc1nc(CN(Cc2ccc(OCC(C)C)cc2)C2=NC(=O)C3(CCN(C)CC3)N2)co1 [Compound I-039]	< 10	10 to 100	–	–
CC(C)COc1ccc(CN(Cc2cnn(C)c2)C2=NOC3(CCN(C)CC3)N2)cc1 [Compound I-046]	100 to 500	10 to 100	–	–
Cc1nc(CN(Cc2ccc(OCC(F)(F)F)cc2)C2=NOC3(CCN(C)CC3)N2)co1 [Compound I-047]	< 10	< 10	–	–
Cc1nc(CN(Cc2ccc(OCC(C)C)cc2)C2=NOC3(CCNCC3)N2)co1 [Compound I-048]	< 10	< 10	–	–
CC(C)COc1ccc(CN(Cc2coc(C3CC3)n2)C2=NOC3(CCN(C)CC3)N2)cc1 [Compound I-049]	–	–	0.524	0.961
CC(C)COc1ccc(CN(Cc2coc(C(F)F)n2)C2=NOC3(CCN(C)CC3)N2)cc1 [Compound I-050]	< 10	< 10	–	–
Cc1nc(CN(Cc2ccc(OCC(C)C)cc2)C2=NC3(CCNCC3)ON2C)co1 [Compound I-051]	100 to 500	100 to 500	–	–
Cc1nc(CN(Cc2ccc(OCC(C)C)cc2)C2=NC3(CCN(C)CC3)ON2C)co1 [Compound I-052]	100 to 500	100 to 500	–	–
Cc1ncc(CN(Cc2ccc(OCC(C)C)cc2)C2=NOC3(CCN(C)CC3)N2)o1 [Compound I-053]	< 10	< 10	–	–
Cc1coc(CN(Cc2ccc(OCC(C)C)cc2)C2=NOC3(CCN(C)CC3)N2)n1 [Compound I-054]	10 to 100	< 10	–	–

From patent publication US20250026765A1, “SPIROHETEROCYCLE DERIVATIVE HAVING SEROTONIN RECEPTOR BINDING ACTIVITY” (Shionogi & Co., Ltd., priority 2021, published 2025)
